Measured values: EP0414533A1, “Use of iodopropargyl esters of alpha-amino acid derivatives as antimicrobial agents” (ROHM AND HAAS COMPANY, priority 1989, dated 1991)
Converted amounts (≈) assume the structure as drawn. Counter-ions that a name gives are not always drawn. Like-named read-outs stand apart in the source and are kept apart here.

Experiments:
[1] = system: Aspergillus niger (ANIG); assay: Minimum inhibitory concentration (MIC), broth two-fold serial dilution test; assay type: cell-based; conditions: for MIC: Aspergillus niger
[2] = system: Aureobasidium pullulans (APUL); assay: as above; assay type: cell-based; conditions: for MIC: Aureobasidium pullulans
[3] = system: Piricularia oryzae (PIR); assay: microbe, parasite or virus in culture; assay type: cell-based; conditions: for inhibition of growth at 25 ppm: read-out: % Control at 25 ppm PIR
[4] = system: Septoria nodorum (SEP); assay: In-vitro plant fungicide test; assay type: cell-based; conditions: 25 ppm, Table IVa; for inhibition of growth at 25 ppm: Parastagonospora nodorum, read-out: % Control at 25 ppm SEP
[5] = system: Xanthomonas campestris (XAN); assay: In-vitro plant fungicide test; assay type: cell-based; conditions: 25 ppm, Table IVa; for inhibition of growth at 25 ppm: Xanthomonas campestris, read-out: % Control at 25 ppm XAN
[6] = system: THREE FUNGI; assay: MIC test against three fungi in Mycophile Broth, pH 5.0, read after 8 days (Table VII); assay type: cell-based; conditions: for MIC: 192 h
[7] = system: Pseudomonas fluorescens (PSFL); assay: Minimum inhibitory concentration (MIC), broth two-fold serial dilution test; conditions: for MIC (G-) PSFL: M9G (minimal salts media with glucose); for MIC: Pseudomonas fluorescens, read-out: MIC (G-) PSFL, M9G (minimal salts media with glucose)
[8] = system: Pseudomonas aerugenosa (PSAE); assay: as above
Text: (§1) When the test is ready to be done, each vessel in the dilution series, except the first vessel, contains an equal volume of compound free broth. The first vessel contains twice the volume of broth with the starting concentration of test compound. One half of the broth from the first vessel is transferred to the second vessel. After being mixed, one half the resulting volume is removed from the second vessel and transferred to the third vessel. The entire cycle is repeated sufficiently to give a series of concentrations amounting to 500, 250, 125, 63, 31, 16, 8, and 4 ppm (or 100, 50, 25, 12.5, 6.2, 3.1, 1.6, and 0.8), respectively.
(§2) Each vessel is then inoculated with a cell suspension of the appropriate test organism. Bacteria are grown in broth, fungi on agar slants for a time and at a temperature appropriate to the species being tested, and algae are a mixture of green algae and blue-green bacteria grown in a nutrient media. At the end of the growth period, in the case of bacteria, the broth is vortexed to disperse the cells.
(§3) The vessels are then incubated at the appropriate temperature. After the incubation, the vessels are examined for growth/no growth.

[9] = system: Escherichia coli (ECOL); assay: as above; conditions: for MIC (G-) ECOL: M9G (minimal salts media with glucose); for MIC: Escherichia coli, read-out: MIC (G-) ECOL, M9G (minimal salts media with glucose)
[10] = system: Staphylococcus aureus (SAUR); assay: as above; conditions: for MIC (G+) SAUR: M9G (minimal salts media with glucose); for MIC: Staphylococcus aureus, read-out: MIC (G+) SAUR, M9G (minimal salts media with glucose)
Text: as §1, §2, §3

[11] = system: Botrytis cinerea (BOC); assay: In-vitro plant fungicide test; assay type: cell-based; conditions: Botrytis cinerea, 25 ppm; Table IVa; *=Phytotoxic; read-out: % Control at 25 ppm BOC
[12] = system: Fusarium roseum (FUS); assay: In-vitro plant fungicide test; assay type: cell-based; conditions: Fusarium sambucinum, read-out: % Control at 25 ppm FUS, 25 ppm; Table IVa; *=Phytotoxic
[13] = system: Cochliobolus sativus (HEL); assay: In-vitro plant fungicide test; assay type: cell-based; conditions: Bipolaris sorokiniana, 25 ppm; Table IVa; *=Phytotoxic; read-out: % Control at 25 ppm HEL
[14] = system: Pythium ultimum (PYU); assay: In-vitro plant fungicide test; assay type: cell-based; conditions: Globisporangium ultimum; 25 ppm; Table IVa; read-out: % Control at 25 ppm PYU
[15] = system: Rhizoctonia solani (RHI); assay: In-vitro plant fungicide test; assay type: cell-based; conditions: Rhizoctonia solani; 25 ppm; Table IVa; read-out: % Control at 25 ppm RHI
[16] = M9G (minimal salts media with glucose), Table IIIa
[17] = Aspergillus niger, serial dilutions from 50 ppm, read after 8 days of incubation, read-out: MIC ANIG
[18] = Aureobasidium pullulans, serial dilutions from 50 ppm, read after 8 days of incubation, read-out: MIC APUL
[19] = Gloeophyllum trabeum, serial dilutions from 50 ppm, read after 8 days of incubation, read-out: MIC GTRA
[20] = M9G (minimal salts media with glucose), Table IIIc, iodopropargyl esters of peptides, read-out: MIC (F) ANIG
[21] = M9G (minimal salts media with glucose), Table IIIc, iodopropargyl esters of peptides, read-out: MIC (F) APUL
[22] = Table IIIc, iodopropargyl esters of peptides
[23] = M9G (minimal salts media with glucose), Table IIIc, iodopropargyl esters of peptides

Row | Compound | MIC (G+) SAUR ([10]; Table IIIa) [PPM] | inhibition of growth at 25 ppm [11] [%] | inhibition of growth at 25 ppm [12] [%] | inhibition of growth at 25 ppm [13] [%] | inhibition of growth at 25 ppm [3] [%] | inhibition of growth at 25 ppm [14] [%] | inhibition of growth at 25 ppm [15] [%] | inhibition of growth at 25 ppm [4] [%] | inhibition of growth at 25 ppm [5] [%] | MIC [6, 17] [µg/mL] | MIC [6, 18] [µg/mL] | MIC [6, 19] [µg/mL] | MIC ([10]; Table IIIa) [µg/mL] | MIC [1, 20] [µg/mL] | MIC [2, 21] [µg/mL] | MIC [9, 22] [µg/mL] | other results
1 | C[C@H](N)C(=O)OCC#CI [Compound 22, L-alanine iodopropargyl ester] | 100 |  |  |  |  |  |  |  |  |  |  |  |  |  |  |  | MIC (F) ANIG [1, 16]: <0.8 PPM; MIC (F) APUL [2, 16]: <0.8 PPM; % Control at 25 ppm PIR ([3]; 25 ppm): 100%; % Control at 25 ppm SEP [4]: 100%; % Control at 25 ppm XAN [5]: 0%; MIC ANIG ([6]; Aspergillus niger, serial dilutions from 50 ppm, read after 8 days of incubation): 12.5 ppm; MIC APUL ([6]; Aureobasidium pullulans, serial dilutions from 50 ppm, read after 8 days of incubation): 50 ppm; MIC (G-) PSFL ([7]; Table IIIa): 100 PPM; MIC (G-) PSAE [8, 16]: 100 PPM; MIC (G-) ECOL ([9]; Table IIIa): 100 PPM
2 | C[C@@H](NC(=O)OC(C)(C)C)C(=O)OCC#CI [Compound 23, N-t-butoxycarbonyl-D-alanine iodopropargyl ester] | 32 | 100 | 100 | 100 | 100 | 100 | 100 | 100 | 0 | 6.2 (≈ 17.6 µM) | 25 (≈ 70.8 µM) | 1.6 (≈ 4.53 µM) | 63 |  |  |  | MIC ([1]; M9G (minimal salts media with glucose), Table IIIa, read-out: MIC (F) ANIG): < 4 µg/mL; MIC ([2]; M9G (minimal salts media with glucose), Table IIIa, read-out: MIC (F) APUL): < 4 µg/mL
3 | C[C@@H](N)C(=O)OCC#CI [Compound 24, D-alanine iodopropargyl ester trifluoroacetate] |  | 0 | 75 | 100 | 100 | 100 | 100 | 100 | 0 |  |  |  | 125 |  |  |  | MIC ([1]; read-out: MIC (F) ANIG, M9G (minimal salts media with glucose), Table IIIa): < 4 µg/mL; MIC ([2]; read-out: MIC (F) APUL, M9G (minimal salts media with glucose), Table IIIa): < 4 µg/mL; MIC ([6]; Aspergillus niger, pH 5, read-out: MIC ANIG, Aspergillus niger, serial dilutions from 50 ppm, read after 8 days of incubation): 12.5 µg/mL; MIC ([6]; Aureobasidium pullulans, pH 5, read-out: MIC APUL, Aureobasidium pullulans, serial dilutions from 50 ppm, read after 8 days of incubation): 25 µg/mL; MIC ([6]; Gloeophyllum trabeum, pH 5, read-out: MIC GTRA, Gloeophyllum trabeum, serial dilutions from 50 ppm, read after 8 days of incubation): 12.5 µg/mL; MIC (G-) PSFL ([7]; Table IIIa, trifluoroacetate): 32 PPM; MIC ([7]; Table IIIa): 63 µg/mL; MIC ([9]; Table IIIa): 32 µg/mL; MIC (G-) ECOL ([9]; Table IIIa, trifluoroacetate): 63 PPM; MIC (G+) SAUR ([10]; Table IIIa, trifluoroacetate): 63 PPM
4 | C[C@@H](NC(=O)OC(C)(C)C)C(=O)N[C@H](C)C(=O)OCC#CI [Compound 25, N-t-butoxycarbonyl-D-alanyl-D-alanine iodopropargyl ester] |  |  |  |  |  |  |  |  |  | 50 (≈ 118 µM) | > 50 | 6.2 (≈ 14.6 µM) |  | < 4 | < 4 | 63 | 
5 | C[C@H](NC(=O)[C@@H](C)NC(=O)OC(C)(C)C)C(=O)OCC#CI [Compound 26, N-t-butoxycarbonyl-D-alanyl-L-alanine iodopropargyl ester] |  |  |  |  |  |  |  |  |  | 25 (≈ 58.9 µM) | 50 (≈ 118 µM) | 6.2 (≈ 14.6 µM) |  |  | < 4 | 63 | MIC (F) ANIG [1, 23]: <4 PPM; MIC (F) APUL [2, 23]: 8 PPM; MIC (G-) ECOL [9, 22]: 32 PPM
6 | C[C@H](NC(=O)CNC(=O)OC(C)(C)C)C(=O)OCC#CI [Compound 27, N-t-butoxycarbonylglycyl-L-alanine iodopropargyl ester] |  | 75 | 100 | 100 | 0 | 100 | 100 | 100 | 0 | 25 (≈ 60.9 µM) | 50 (≈ 122 µM) | 6.2 (≈ 15.1 µM) |  | < 4 | 8 | 250 | MIC [7, 22]: 125 µg/mL; MIC ([8]; Pseudomonas, read-out: MIC (G-) PSAE, M9G (minimal salts media with glucose), Table IIIc, iodopropargyl esters of peptides): 250 µg/mL; MIC [10, 22]: 125 µg/mL
